Laboratory results taken from patent publication US4778790A, “Perhydrothiazepine and perhydroazepine derivatives and their therapeutic use” (Sankyo Company Limited, priority 1986, dated 1988).
Structures can show the parent of a compound that is named as a salt.

Each molecule was assayed against T1, ACE extracted from rabbit lungs (Oryctolagus cuniculus, UniProt P12822) (assay: in vitro ACE inhibition (hippurylhistidylleucine substrate, procedure of Cushman et al.)). Conditions: rabbit lung ACE, borate buffer with NaCl, pH 8.3, 37° C., 30 minutes, read-out: IC50 (concentration required to inhibit the activity of ACE by 50% in vitro).
T1 construct: ACE extracted from rabbit lungs; from tissue; host or cells: rabbit lung
T1 sequence (P12822 34-1310): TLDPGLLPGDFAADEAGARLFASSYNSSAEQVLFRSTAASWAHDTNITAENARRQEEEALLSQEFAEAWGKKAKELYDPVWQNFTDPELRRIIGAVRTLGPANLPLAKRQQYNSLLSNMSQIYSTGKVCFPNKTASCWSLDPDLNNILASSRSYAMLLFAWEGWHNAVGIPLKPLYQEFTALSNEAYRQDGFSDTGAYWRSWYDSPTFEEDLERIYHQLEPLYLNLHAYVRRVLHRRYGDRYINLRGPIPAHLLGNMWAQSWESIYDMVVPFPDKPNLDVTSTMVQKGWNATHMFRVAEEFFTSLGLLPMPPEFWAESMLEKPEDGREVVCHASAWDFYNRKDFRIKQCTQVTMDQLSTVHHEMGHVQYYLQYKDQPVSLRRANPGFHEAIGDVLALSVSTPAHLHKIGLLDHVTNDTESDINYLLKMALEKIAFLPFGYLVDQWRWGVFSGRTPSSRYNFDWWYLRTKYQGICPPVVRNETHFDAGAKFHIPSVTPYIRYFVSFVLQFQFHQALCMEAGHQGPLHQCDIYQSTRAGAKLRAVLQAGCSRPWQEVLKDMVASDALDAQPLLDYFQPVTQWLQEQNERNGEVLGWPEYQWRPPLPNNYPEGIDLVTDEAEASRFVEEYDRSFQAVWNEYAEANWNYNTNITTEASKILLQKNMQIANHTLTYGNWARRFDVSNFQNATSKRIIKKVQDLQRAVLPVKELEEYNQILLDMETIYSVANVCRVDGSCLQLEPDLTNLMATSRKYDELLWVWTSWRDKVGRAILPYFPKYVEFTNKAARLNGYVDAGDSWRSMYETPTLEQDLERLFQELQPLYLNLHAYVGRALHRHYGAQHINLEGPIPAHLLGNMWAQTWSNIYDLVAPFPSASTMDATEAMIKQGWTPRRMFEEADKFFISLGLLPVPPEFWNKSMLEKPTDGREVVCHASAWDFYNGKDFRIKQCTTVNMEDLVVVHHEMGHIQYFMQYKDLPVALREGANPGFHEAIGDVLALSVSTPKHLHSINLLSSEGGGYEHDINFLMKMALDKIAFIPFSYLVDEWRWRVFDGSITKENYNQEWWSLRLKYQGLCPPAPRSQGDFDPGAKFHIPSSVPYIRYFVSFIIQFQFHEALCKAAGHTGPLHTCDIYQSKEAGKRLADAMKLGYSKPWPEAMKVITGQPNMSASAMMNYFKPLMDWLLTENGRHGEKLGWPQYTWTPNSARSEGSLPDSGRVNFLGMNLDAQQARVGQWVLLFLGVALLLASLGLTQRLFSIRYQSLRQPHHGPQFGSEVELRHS
Type: biochemical
Text: As noted above, the compounds of the present invention have the ability to inhibit the activity of ACE, the enzyme which converts angiotensin I to angiotensin II and also inactivates bradykinin. The physiological activity of the compounds of the invention can be evaluated by determining the concentration of the test compound required to inhibit the activity of ACE by 50% in vitro (IC50), for example by the procedure of D. W. Cushman et al. [Biochemical Pharmacology, 20, 1637 (1971)]. Specifically, solutions of ACE extracted from rabbit lungs and, as substrate, hippurylhistidylleucine, to which had been added the test compound at various concentrations, were added to a borate buffer solution containing sodium chloride, and the pH was adjusted to a value of 8.3. The enzymatic reaction was allowed to proceed at 37° C. for 30 minutes, after which time the reaction was terminated by adding 1N aqueous hydrochloric acid. […] The residual hippuric acid was dissolved in water. The amount of hippuric acid in the resulting aqueous solution was determined by the absorbency to ultraviolet radiation at 228 nm. The resulting values were then plotted to form a curve indicating the relationship between the amount of hippuric acid formed and the concentration of the test compound. The IC50 value can be obtained by reading on this curve the concentration of the test compound which reduces the amount of hippuric acid formed to one half of that formed when no test compound is present.

In order of falling IC50:
1. NCCCCCCCC(NC1CCC(c2ccccc2)CN(CC(=O)O)C1=O)C(=O)O [E, rel-α-{3(S)-[8-Amino-1(S)-carboxyoctylamino]-2-oxo-6(R)-phenylperhydrozepin-1-yl}acetic acid]  4.1 nM
2. O=C(O)CN1C[C@@H](c2ccccc2)CC[C@H](N[C@@H](CCCCC2CCNCC2)C(=O)O)C1=O (relative stereo) [G, rel-α-{3(S)-[1(S)-Carboxy-5-(4-piperidyl)pentylamino]-2-oxo-6(R)-phenylperhydroazepin-1-yl}acetic acid]  3.7 nM
3. NCCCC[C@H](N[C@H]1CS[C@H](c2cccs2)CN(CC(=O)O)C1=O)C(=O)O [A, α-{6(R)-[5-Amino-1(S)-carboxypentylamino]-5-oxo-2(S)-(2-thienyl)perhydro-1,4-thiazepin-4-yl}acetic acid dihydrochloride]  3.3 nM
4. NCCCCCCC(NC1CSC(c2ccccc2)CN(CC(=O)O)C1=O)C(=O)O [C, rel-α-}6(R)-[7-Amino-1(S)-carboxyheptylamino]-5-oxo-2(R)-phenylperhydro-1,4-thiazepin-4-yl}acetic acid]  3.1 nM
5. NCCCCCC[C@H](N[C@H]1CS[C@H](c2cccs2)CN(CC(=O)O)C1=O)C(=O)O [B, α-{6(R)-[7-Amino-1(S)-carboxyheptylamino]-5-oxo-2(S)-(2-thienyl)perhydro-1,4-thiazepin-4-yl}acetic acid]  2 nM
6. NCCCCCCC[C@H](N[C@H]1CS[C@H](c2cccs2)CN(CC(=O)O)C1=O)C(=O)O [D]  1.6 nM
7. O=C(O)CN1C[C@@H](c2cccs2)SC[C@H](N[C@@H](CCCCC2CCNCC2)C(=O)O)C1=O [F, α-{6(R)-[1(S)-Carboxy-5-(4-piperidyl)pentylamino]-5-oxo-2(S)-(2-thienyl)perhydro-1,4-thiazepin-4-yl}acetic acid]  1.6 nM
